Assay results published in patent publication US20230053297A1, “COMPOSITIONS AND METHODS TO INCREASE SERUM DILEUCINE LEVELS” (Ingenious Ingredients, LP, priority 2021, published 2023).

Experiment: Plasma dileucine pharmacokinetics after a single dose of leucine or whey protein isolate in healthy men
Conditions: male, human, in vivo
Procedure: Five healthy men between the ages of 18-50 years of age were recruited to participate in this study. Prior to beginning the study, all participants signed an informed consent document and complete a healthy history questionnaire to determine study eligibility.
All participants reported to the laboratory between 06:00-10:00 hours and observing an 8-10 hour fast. For the two days prior to testing, study participants were given a standardized meal plan to help control for changes in dietary intake prior to testing. Upon arrival, participants heart rate, blood pressure, body mass, height and body composition were measured using DEXA. Prior to body composition assessment, study participants were tested for appropriate hydration status. Using standard multiple sample phlebotomy approaches, approximately 10 mL of venous blood was collected from a forearm vein prior to being administrated a single dose of either leucine (2-gram dose) or whey protein isolate (25-gram dose). In a time course fashion, subsequent venous blood samples were collected 30, 60, 90, 120 and 240 minutes after ingestion of their assigned supplement. Participants were provided 250 mL of cold water to ingest after each blood collection. Study participants returned approximately 3-7 days after completion of the previous study visit to complete an identical testing session as previously described while receiving the alternative treatment.

CC(C)C[C@H](N)C(=O)O [leucine]
AUC Dileucine: 37.1 ± 20.2 µM·h
Cmax: 610 ± 430 nM
increase of plasma dileucine levels compared to whey protein (as AUC): 40.5%
